The record followed here is patent US8324245B2, “Quinoline derivative and quinazoline derivative inhibiting self-phosphorylation of hepatocytus proliferator receptor, and medicinal composition containing the same” (Kyowa Hakko Kirin Co., Ltd., priority 2001, dated 2012).

Test [1] deals with human lung cancer cells (LC6). Briefly: Tumor growth inhibitory activity against various human tumor cells in nude mice: LC6. It is filed as in vivo. The note with it: LC6, Oral, 30 × 2 mg/kg × number of times, 5 days. Here is the method:
(§1) Human gastric cancer cells (MKN 45) (obtained from RIKEN), human brain tumor cells (U87MG) (obtained from ATCC), human pancreatic cancer cells (KP4) (obtained from RIKEN), human pancreatic cancer cells (SUIT-2) (obtained from National Kyushu Cancer Center), and human signet-ring type gastric cancer cells (NUGC-4) (obtained from RIKEN), or human lung cancer cells (LC6) (obtained from Central Laboratories for Experimental Animals) were transplanted into nude mice. […] The test compound suspended in 0.5% methylcellulose was orally administered once or twice a day for 5 days. Only 0.5% methylcellulose was administered to the control group in the manner as in the test groups. Alternatively, the test compound dissolved in physiological saline (with a 1 N aqueous hydrochloric acid solution added thereto) was intraveneously injected once a day for 5 days, and only physiological saline (with a 1 N aqueous hydrochloric acid solution added thereto) was administered to the control group in the same manner as in the test groups. The tumor growth inhibition rate (TGIR) was calculated as follows: The tumor growth inhibition rate (TGIR)=(1−TX/CX)×100 wherein CX represents the relative tumor volume at the 5th day for the control group when the tumor volume at the day of the start of the administration was presumed to be 1; and TX represents the relative tumor volume for test compound administration groups.

The test system of test [2] is Human gastric cancer cells (MKN 45). Briefly: Tumor growth inhibitory activity against human gastric cancer cells (MKN 45) in nude mice. The conditions noted are these: oral, twice a day for 5 days. Type of test: in vivo. Here is the method:
Human gastric cancer cells (MKN 45) were transplanted into nude mice. […] The test compound suspended in 0.5% methylcellulose was orally administered twice a day for 5 days.
(§2) Only 0.5% methylcellulose was administered to the control group in the manner as in the test groups. The tumor growth inhibition rate (TGIR) was calculated as follows: The tumor growth inhibition rate (TGIR)=(1−TX/CX)×100 wherein CX represents the relative tumor volume at day X for the control group when the tumor volume at the day of the start of the administration was presumed to be 1; and TX represents the relative tumor volume for test compound administration groups.

The target of test [3] is T1, met (HGF receptor) in human gastric cancer cells MKN45 (Homo sapiens, UniProt P08581).
T1 construct: endogenous in cells; host or cells: MKN45 human gastric cancer cells
T1 sequence (P08581 25-1390): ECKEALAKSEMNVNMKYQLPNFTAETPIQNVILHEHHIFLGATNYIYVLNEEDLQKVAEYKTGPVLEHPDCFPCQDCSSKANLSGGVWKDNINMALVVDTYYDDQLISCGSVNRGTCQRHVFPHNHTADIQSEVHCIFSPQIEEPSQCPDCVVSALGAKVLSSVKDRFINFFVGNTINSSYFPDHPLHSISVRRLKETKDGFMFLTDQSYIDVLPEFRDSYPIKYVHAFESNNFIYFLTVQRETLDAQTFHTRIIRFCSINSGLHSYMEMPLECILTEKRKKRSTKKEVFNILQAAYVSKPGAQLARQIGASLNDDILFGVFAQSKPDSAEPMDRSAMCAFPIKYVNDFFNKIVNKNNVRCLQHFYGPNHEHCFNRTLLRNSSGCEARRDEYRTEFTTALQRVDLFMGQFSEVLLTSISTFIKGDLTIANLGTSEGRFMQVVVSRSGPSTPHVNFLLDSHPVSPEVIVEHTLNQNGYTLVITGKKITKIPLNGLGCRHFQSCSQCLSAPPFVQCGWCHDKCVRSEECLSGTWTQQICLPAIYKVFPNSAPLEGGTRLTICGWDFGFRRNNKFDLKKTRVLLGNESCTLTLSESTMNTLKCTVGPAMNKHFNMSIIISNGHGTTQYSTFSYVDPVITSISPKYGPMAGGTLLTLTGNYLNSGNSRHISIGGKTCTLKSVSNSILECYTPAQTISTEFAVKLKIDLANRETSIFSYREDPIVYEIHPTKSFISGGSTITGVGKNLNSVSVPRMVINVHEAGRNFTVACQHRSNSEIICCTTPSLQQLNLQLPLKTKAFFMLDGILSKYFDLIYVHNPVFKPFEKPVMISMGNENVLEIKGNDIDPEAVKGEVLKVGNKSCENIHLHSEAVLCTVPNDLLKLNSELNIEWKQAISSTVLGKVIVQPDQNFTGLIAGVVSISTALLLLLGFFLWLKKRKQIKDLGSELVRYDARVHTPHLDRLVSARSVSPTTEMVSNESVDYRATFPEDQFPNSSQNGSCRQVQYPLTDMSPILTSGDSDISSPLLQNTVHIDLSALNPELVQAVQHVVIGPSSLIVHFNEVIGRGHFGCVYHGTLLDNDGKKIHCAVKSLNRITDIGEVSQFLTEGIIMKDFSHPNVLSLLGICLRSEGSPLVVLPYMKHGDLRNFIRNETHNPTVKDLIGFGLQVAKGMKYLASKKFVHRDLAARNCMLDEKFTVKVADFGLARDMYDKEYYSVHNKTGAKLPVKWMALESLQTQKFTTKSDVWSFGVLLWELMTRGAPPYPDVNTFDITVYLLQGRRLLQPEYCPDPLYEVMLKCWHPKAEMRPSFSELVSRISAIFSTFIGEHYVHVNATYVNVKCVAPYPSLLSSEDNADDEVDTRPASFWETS
Briefly: Inhibitory activity against met-autophosphorylation using ELISA method (2), MKN45 cells, HGF-independent. Type of test: cell-based. The procedure, abridged:
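MKN45 cells, 3×10^4 per well in RPMI with 0.1% FCS overnight, were exposed to compound in DMSO for 1 h at 37 °C without HGF. Lysates were captured on anti-phosphotyrosine (PY20) plates, Met detected with anti-Met and peroxidase secondary antibody, absorbance at 450 nm.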
In general terms: In an ELISA, binding on a coated surface is turned into a signal by an enzyme label.

In test [4] the test system is Human brain tumor cells (U87MG). Put plainly: Tumor growth inhibitory activity against various human tumor cells in nude mice: U87MG. It is filed as in vivo. The note with it: Oral, 30 × 2 mg/kg × number of times, 5 days. As to the method: as §1
Test [5] concerns human pancreatic cancer cells (SUIT-2). Put plainly: Tumor growth inhibitory activity against various human tumor cells in nude mice: SUIT-2. It is filed as in vivo. The conditions noted are these: SUIT-2, Oral, 25 × 1 mg/kg × number of times, 5 days. As to the method:
as §1, with “Alternatively, the test compound dissolved in physiological saline (with a 1 N aqueous hydrochloric acid solution added thereto) was intraveneously injected once a day for 5 days, and only physiological saline (with a 1 N aqueous hydrochloric acid solution added thereto) was administered to the control group in the same manner as in the test groups.” left out

Test [6] relates to human pancreatic cancer cells (KP4). Briefly: Tumor growth inhibitory activity against various human tumor cells in nude mice: KP4. Type of test: in vivo. The conditions noted are these: KP-4, Oral, 5 days. Here is the method: as §1
For test [7], the system named is Human gastric cancer cells (MKN 45). Put plainly: Tumor growth inhibitory activity against various human tumor cells in nude mice: MKN 45. It is filed as in vivo. The conditions noted are these: Mus musculus, MKN-45, po, 120 h, MKN45, Oral, 5 days; read-out: TGIR. As to the method: as §1
Test [8] relates to human signet-ring type gastric cancer cells (NUGC-4). Briefly: Tumor growth inhibitory activity against various human tumor cells in nude mice: NUGC-4. It is filed as in vivo. The conditions noted are these: NUGC-4, Oral, 30 × 2 mg/kg × number of times, 5 days. As to the method: as §1, with “Alternatively, the test compound dissolved in physiological saline (with a 1 N aqueous hydrochloric acid solution added thereto) was intraveneously injected once a day for 5 days, and only physiological saline (with a 1 N aqueous hydrochloric acid solution added thereto) was administered to the control group in the same manner as in the test groups.” left out

For test [9], the system named is Human brain tumor cells (U87MG). Put plainly: Tumor growth inhibitory activity against human brain tumor cells (U87MG) in nude mice. The note with it: oral, twice a day for 5 days. It is filed as in vivo. As to the method: Human brain tumor cells (U87MG) were transplanted into nude mice. […] The test compound suspended in 0.5% methylcellulose was orally administered twice a day for 5 days.
as §2

In test [10] the target is T2, met (HGF receptor) in human epidermal cancer cells A431 (Homo sapiens, UniProt P08581).
T2 construct: endogenous in cells; host or cells: A431 human epidermal cancer cells
T2 sequence (P08581 25-1390): as above
Put plainly: Inhibitory activity against met-autophosphorylation using ELISA method (1), HGF-stimulated A431 cells. The conditions noted are these: HGF 50 ng/ml stimulation, read-out: IC50 (concentration necessary for inhibiting 50% of met phosphorylation). Type of test: cell-based. Here is the method:
Human epidermal cancer cells A431 were cultured in an RPMI 1640 medium containing 10% fetal calf serum (purchased from GIBCO BRL) within a 5% carbon dioxide incubator until 50 to 90% confluent. Cells were cultured with RPMI medium containing 0.1% fetal calf serum in 96-well flat-bottom plate in an amount of 3×10^4 per well, and were incubated at 37° C. overnight. The medium was then replaced by a fresh RPMI medium containing 0.1% fetal calf serum. A solution of the test compound in dimethyl sulfoxide was added to each well, and the cells were incubated at 37° C. for additional one hr. A human recombinant hepatocyte growth factor (hereinafter abbreviated to “HGF”) was added to a final concentration of 50 ng/ml, and the stimulation of cells was carried out at 37° C. for 5 min. The medium was removed, the cells were washed with phosphate buffered saline (pH 7.4), and 50 μl of lysis buffer (20 mM HEPES (pH 7.4), 150 mM NaCl, 0.2% Triton X-100, 10% glycerol, 5 mM sodium orthovanadylate, 5 mM disodium ethylenediaminetetraacetate, and 2 mM Na4P2O7) was then added thereto. […]
Separately, phosphate buffered saline (50 μl, pH 7.4) containing 5 μg/ml of anti-phospho-tyrosine antibody (PY20; purchased from Transduction Laboratories) was added to a microplate for ELISA (Maxisorp; purchased from NUNC), followed by gentle agitation at 4° C. overnight to coat the surface of the wells with the antibody. […] After washing, the whole quantity of the cell extract was transferred to the wells, and the plate was then allowed to incubate at 4° C. overnight. […] After a suitable level of color development, a reaction termination solution was added to stop the reaction, and the absorbance at 450 nm was measured with a microplate reader. The met-phosphorylation inhibitory activity for each well was determined by presuming the absorbance with the addition of HGF and the vehicle to compounds to be 0% met-phosphorylation inhibitory activity and the absorbance with the addition of the vehicle to compounds and without HGF to be 100% met phosphorylation inhibitory activity. […]

Consider `COc1cc2c(Oc3ccc(NC(=S)NC(=O)Cc4ccccc4)cc3F)ccnc2cc1OCCCN1CCOCC1` [Example 268, N-{3-fluoro-4-[6-methoxy-7-(3-morpholin-4-yl-propoxy)quinolin-4-yloxy]phenyl}-N′-phenylacetyl-thiourea], for which the TGIR is given as 35% in [1] and 74% in test [4]. In addition, the “TGIR (tumor growth inhibition rate)” value in test [2] (dose 30 mg/kg/time) worked out at 81%. The IC50 in test [3] came to 0.0228 µM.
Take `COc1cc2c(Oc3ccc(NC(=S)NC(=O)Cc4ccc(F)cc4)cc3F)ccnc2cc1OCC(O)CN1CCOCC1` (centres unmarked) [Example 313, 1-{3-Fluoro-4-[7-(2-hydroxy-3-morpholin-4-yl-propoxy)-6-methoxy-quinolin-4-yloxy]-phenyl}-3-[2-(4-fluorophenyl)-acetyl]-thiourea]: in [3], the IC50 is 0.0211 µM. Also, the TGIR in test [5] worked out at 28%; in [6] (12.5 × 1 mg/kg × number of times), 34%; in test [6] (25 × 1 mg/kg × number of times), 45%; in [6] (50 × 1 mg/kg × number of times) it was 48%.
Turning to `COc1cc2c(Oc3ccc(NC(=S)NC(=O)Cc4ccccc4Cl)cc3F)ccnc2cc1OCCCN1CCOCC1` [Example 285, 1-[2-(2-Chloro-phenyl)-acetyl]-3-{3-fluoro-4-[6-methoxy-7-(3-morpholin-4-yl-propoxy)-quinolin-4-yloxy]-phenyl}-thiourea], the TGIR in test [1] was determined as 48%. Besides, in test [3], the IC50 is 0.0753 µM. Moreover, the inhibition in vivo at 30 mg/kg in test [7] worked out at 66%.
For `COc1cc2nccc(Oc3ccc(NC(=O)NC(=O)Cc4ccc(F)cc4)c(F)c3)c2cc1OC` [Example 3, N-[4-(6,7-dimethoxyquinolin-4-yloxy)-2-fluoro-phenyl]-N′-[2-(4-fluorophenyl)acetyl]urea], the TGIR worked out at 18% in [1]; 71% in test [8]; 51% in test [9] (30 mg/kg/time); 60% in [9] (100 mg/kg/time); 31% in test [6] (30 × 2 mg/kg × number of times). Further, the “TGIR (tumor growth inhibition rate)” value in test [2] (dose 10 mg/kg/time) worked out at 24%; in [2] (dose 30 mg/kg/time) it was 52%. Besides, the IC50 in test [3] came to 0.0304 µM; in test [10], 0.0197 µM.
Take `COc1cc2nccc(Oc3ccc(NC(=S)NC(=O)Cc4ccc(F)cc4)cc3F)c2cc1OC` [Example 2, N-[4-(6,7-dimethoxyquinolin-4-yloxy)-3-fluoro-phenyl]-N′-[2-(4-fluorophenyl)acetyl]thiourea]: the TGIR came to 27% in [1]; 75% in test [8]; 38% in test [9] (10 mg/kg/time); 61% in [9] (30 mg/kg/time); 54% in test [6] (30 × 2 mg/kg × number of times). For the same compound, the “TGIR (tumor growth inhibition rate)” value was found to be 31% in test [2] (dose 10 mg/kg/time) and 65% in test [2] (dose 30 mg/kg/time). Also, the IC50 came out at 0.0181 µM in [3] and 0.0118 µM in [10].
Regarding `COc1cc2c(Oc3ccc(NC(=O)NC(=O)Cc4ccc(F)cc4)c(F)c3)ccnc2cc1OCCCN1CCOCC1` [Example 286, 1-{2-Fluoro-4-[6-methoxy-7-(3-morpholin-4-yl-propoxy)-quinolin-4-yloxy]-phenyl}-3-[2-(4-fluoro-phenyl)-acetyl]-urea], the TGIR in test [1] is 37%; in [4], 66%. Besides, in test [3], the IC50 came out at 0.0293 µM. In addition, in test [7], the inhibition in vivo at 30 mg/kg turned out to be 64%.
Turning to `COc1cc2c(Oc3ccc(NC(=O)NC(=O)Cc4ccccc4)cc3F)ccnc2cc1OCCCN1CCOCC1` [Example 11, 1-{3-fluoro-4-[6-methoxy-7-(3-morpholin-4-yl-propoxy)quinolin-4-yloxy]phenyl}-3-phenylacetylurea], the TGIR in test [1] stood at 26%; in test [4], 62%. The figures for the “TGIR (tumor growth inhibition rate)” value in [2] (dose 10 mg/kg/time) and in test [2] (dose 30 mg/kg/time) were 23% and 52%, respectively. Moreover, the values for the IC50 in test [3] and in test [10] were 0.0202 µM and 0.0581 µM, respectively. For the same compound, in test [7], the inhibition in vivo at 30 mg/kg worked out at 63%.
